The record followed here is patent US10023554B2, “Halogen-substituted heterocyclic compound salt” (UBE INDUSTRIES, LTD., priority 2014, dated 2018).

Structures are written as SMILES.

For this assay, the system named is A2058 human melanoma cells. Kind of assay: Cell migration test (LPA-induced migration, Chemo-Tx). It is filed as cell-based. The settings on record: LPA final concentration 100 nM, 3 hours at 37° C., read-out: concentration (IC50) of the test compound required for 50% inhibition of the cell migration activity of LPA. How it is done:
The cell migration test was carried out using Chemo-Tx (registered trademark) (116-8, Neuro Probe). A2058 human melanoma cells (obtained from European Collection of Cell Culture) were cultured in a serum-free EMEM medium for 24 hours, and were re-suspended in a 0.1% BSA-containing DMEM medium to give a cell suspension. The test compounds dissolved in DMSO in various concentrations were each added to the cell suspension, and the suspensions were cultured at 37° C. for 15 minutes (final DMSO concentration 0.5%). LPA dissolved in a 0.1% BSA-containing DMEM medium (final concentration 100 nM) was added to a Chemo-Tx 96 well plate, and a Chemo-Tx filter coated with 0.001% Fibronectin on both sides was placed onto the plate. The cultured cell suspensions (25,000 cells) were added onto the upper surface of the filter and were further cultured at 37° C. for 3 hours. Thereafter, the cells on the upper surface of the filter were removed. After the filter was removed and was dried, the cells which had migrated to the lower surface of the filter were stained with Diff-Quik stain (16920, Sysmex). The absorbance of the filter (570 nm) was measured and the concentration (IC50) of the test compound required for 50% inhibition of the cell migration activity of LPA was determined by non-linear regression analysis using EXSAS (version 7.6.0, Arm Systex).
Regarding `COc1cc(-c2sc(Cl)cc2NC(=O)O[C@H](C)c2ccccc2)ccc1-c1ccc(C2(C(=O)O)CC2)cc1` [Example 1, Sodium (R)-1-[4′-(5-chloro-3-{[(1-phenylethoxy)carbonyl]amino}thiophen-2-yl)-2′-methoxy-[1,1′-biphenyl]-4-yl]cyclopropanecarboxylate], the IC50 was no more than 200 nM. In the case of `COc1cc(-c2sc(Cl)cc2NC(=O)O[C@H](C)c2cc(F)ccc2F)ccc1-c1ccc(C2(C(=O)O)CC2)cc1` [Example 4, Sodium (R)-1-{4′-[5-chloro-3-({[1-(2,5-difluorophenyl)ethoxy]carbonyl}amino)thiophen-2-yl]-2′-methoxy-[1,1′-biphenyl]-4-yl}cyclopropanecarboxylate] it was no more than 200 nM; in that of `COc1cc(-c2sc(F)cc2NC(=O)O[C@H](C)c2ccccc2Cl)ccc1-c1ccc(C2(C(=O)O)CC2)cc1` [Example 7, Sodium (R)-1-{4′-[3-({[1-(2-chlorophenyl)ethoxy]carbonyl}amino)-5-fluorothiophen-2-yl]-2′-methoxy-[1,1′-biphenyl]-4-yl}cyclopropanecarboxylate], no more than 200 nM. In the case of `C[C@@H](OC(=O)Nc1cc(Cl)sc1-c1ccc(-c2ccc(C3(C(=O)O)CC3)cc2)cc1)c1ccsc1` [Example 10, Sodium (R)-1-{4′-[5-chloro-3-({[1-(thiophen-3-yl)ethoxy]carbonyl}amino)thiophen-2-yl]-[1,1′-biphenyl]-4-yl}cyclopropanecarboxylate] it was no more than 200 nM; in that of `Cc1cscc1[C@@H](C)OC(=O)Nc1cc(F)sc1-c1ccc(-c2ccc(C3(C(=O)O)CC3)cc2)cc1` [Example 13, Sodium (R)-1-{4′-[5-fluoro-3-({[1-(4-methylthiophen-3-yl)ethoxy]carbonyl}amino)thiophen-2-yl]-[1,1′-biphenyl]-4-yl}cyclopropanecarboxylate], no more than 200 nM.
